The text below walks through data of patent US20110065629A1, “ENTERAL NUTRIENT” (AMINO UP CHEMICAL CO., LTD., priority 2008, published 2011).

For this assay, the system named is Dendritic cells separated from the bone marrow and spleen. Kind of assay: External appearance of dendritic cells in plastic dishes with or without LPS. It counts as cell-based, normal mice. As to conditions: AHCC 5 mg/ml, β-glucan 1 mg/ml. The procedure:
Dendritic cells separated from the bone marrow and spleen of normal mice were placed in plastic dishes to measure the external appearances of dendritic cells in the case of adding only LPS so as to achieve a final concentration of 5 μg/ml and in the case of adding LPS and AHCC (final concentration: 5 mg/ml) or β-glucan (final concentration: 1 mg/ml).

Take β-glucan: the Cell morphology result reads like this: (LPS stimulation (5 μg/ml)) “Deformation”; (Normal condition) “Spherical”.
